US6610853B1, “N-(phenylsulfonyl)picolinamide derivatives, process for producing the same, and herbicide” (Kureha Kagaku Kogyo K.K., priority 2000, dated 2003)

Key:
Experiment in all cases: Test on herbicidal activity by foliar application
Type in all cases: in vivo
Settings in all cases: foliar spray, 1 kg/ha, plants at 1-2 leaf stage in pots, evaluated 14 days after spraying
Sinapis arvensis = system: Sinapis arvensis
Method in brief: (§1)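 Wettable-powder formulations sprayed at 1 kg/ha onto foliage of pot-grown plants at the 1-2 leaf stage. Activity was scored 14 days after spraying on a 1–5 scale (1: <30%, 2: 30–50%, 3: 50–70%, 4: 70–90%, 5: ≥90% inhibition).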

Stellaria media = system: Stellaria media
Method in brief: as §1

Abutilon theophrasti = system: Abutilon theophrasti
Method in brief: as §1

Bidens pilosa = system: Bidens pilosa
Method in brief: as §1

Convolvulus arvensis = system: Convolvulus arvensis
Method in brief: as §1

Setaria viridis = system: Setaria viridis
Method in brief: as §1

Matricaria chamomilla = system: Matricaria chamomilla
Method in brief: as §1

Veronica hederaefolia = system: Veronica hederaefolia
Method in brief: as §1

Solanum nigrum = system: Solanum nigrum
Method in brief: as §1

Galium aparine = system: Galium aparine
Method in brief: as §1

Amaranthus retroflexus = system: Amaranthus retroflexus
Method in brief: as §1

**Q.** COC(=O)c1ccccc1S(=O)(=O)NC(=O)c1cccc(Cl)n1 [Compound I-231, 2-[[[(6-Chloropyridin-2-yl)carbonyl]amino]-sulfonyl]benzoic Acid Methyl Ester] was tested. Which “Herbicidal activity, Sinapis arvensis” value (Sinapis arvensis) did it give?
**A.** Its value is 5 (90% or more inhibition).

**Q.** And the “Herbicidal activity, Stellaria media” value (Stellaria media)?
**A.** The value was 5 (90% or more inhibition).

**Q.** And the “Herbicidal activity, Abutilon theophrasti” value (Abutilon theophrasti)?
**A.** The value was 5 (90% or more inhibition).

**Q.** And the “Herbicidal activity, Bidens pilosa” value (Bidens pilosa)?
**A.** The value was 5 (90% or more inhibition).

**Q.** What about the “Herbicidal activity, Convolvulus arvensis” value (Convolvulus arvensis) of the same molecule?
**A.** The value was 4 (70% or more-90% inhibition).

**Q.** And the “Herbicidal activity, Setaria viridis” value (Setaria viridis)?
**A.** The value was 5 (90% or more inhibition).

**Q.** And the “Herbicidal activity, Matricaria chamomilla” value (Matricaria chamomilla)?
**A.** Its value is 5 (90% or more inhibition).

**Q.** What about the “Herbicidal activity, Veronica hederaefolia” value (Veronica hederaefolia) of the same molecule?
**A.** Its value is 5 (90% or more inhibition).

**Q.** What about the “Herbicidal activity, Solanum nigrum” value (Solanum nigrum) of the same molecule?
**A.** Its value is 5 (90% or more inhibition).

**Q.** And the “Herbicidal activity, Galium aparine” value (Galium aparine)?
**A.** Its value is 5 (90% or more inhibition).

**Q.** What about the “Herbicidal activity, Amaranthus retroflexus” value (Amaranthus retroflexus) of the same molecule?
**A.** The value was 5 (90% or more inhibition).

**Q.** With O=C(NS(=O)(=O)c1c(Cl)cccc1Cl)c1cccc(Cl)n1 [Compound I-591, N-[(2,6-Dichlorophenyl)sulfonyl]-6-chloro-2-pyridinecarboxamide] as the molecule, how does the “Herbicidal activity, Sinapis arvensis” value (Sinapis arvensis) read?
**A.** Its value is 5 (90% or more inhibition).

**Q.** And the “Herbicidal activity, Stellaria media” value (Stellaria media)?
**A.** Its value is 5 (90% or more inhibition).

**Q.** What about the “Herbicidal activity, Abutilon theophrasti” value (Abutilon theophrasti) of the same molecule?
**A.** Its value is 5 (90% or more inhibition).

**Q.** And the “Herbicidal activity, Bidens pilosa” value (Bidens pilosa)?
**A.** Its value is 5 (90% or more inhibition).

**Q.** And the “Herbicidal activity, Convolvulus arvensis” value (Convolvulus arvensis)?
**A.** Its value is 5 (90% or more inhibition).

**Q.** And the “Herbicidal activity, Setaria viridis” value (Setaria viridis)?
**A.** Its value is 1 (less than 30% inhibition).

**Q.** And the “Herbicidal activity, Matricaria chamomilla” value (Matricaria chamomilla)?
**A.** Its value is 5 (90% or more inhibition).

**Q.** What about the “Herbicidal activity, Veronica hederaefolia” value (Veronica hederaefolia) of the same molecule?
**A.** The value was 5 (90% or more inhibition).

**Q.** What about the “Herbicidal activity, Solanum nigrum” value (Solanum nigrum) of the same molecule?
**A.** Its value is 5 (90% or more inhibition).

**Q.** And the “Herbicidal activity, Galium aparine” value (Galium aparine)?
**A.** Its value is 5 (90% or more inhibition).

**Q.** What about the “Herbicidal activity, Amaranthus retroflexus” value (Amaranthus retroflexus) of the same molecule?
**A.** Its value is 5 (90% or more inhibition).

**Q.** How did the “Herbicidal activity, Sinapis arvensis” value (Sinapis arvensis) turn out when COc1cc(Cl)nc(C(=O)NS(=O)(=O)c2ccccc2Cl)c1 [Compound I-705, N-[(2-Chlorophenyl)sulfonyl]-6-chloro-4-methoxypyridine-2-carboxamide] was run?
**A.** The value was 5 (90% or more inhibition).

**Q.** And the “Herbicidal activity, Stellaria media” value (Stellaria media)?
**A.** The value was 5 (90% or more inhibition).

**Q.** And the “Herbicidal activity, Abutilon theophrasti” value (Abutilon theophrasti)?
**A.** Its value is 2 (30% or more-50% inhibition).

**Q.** What about the “Herbicidal activity, Bidens pilosa” value (Bidens pilosa) of the same molecule?
**A.** Its value is 5 (90% or more inhibition).

**Q.** And the “Herbicidal activity, Convolvulus arvensis” value (Convolvulus arvensis)?
**A.** The value was 5 (90% or more inhibition).

**Q.** What about the “Herbicidal activity, Setaria viridis” value (Setaria viridis) of the same molecule?
**A.** Its value is 3 (50% or more-70% inhibition).

**Q.** What about the “Herbicidal activity, Matricaria chamomilla” value (Matricaria chamomilla) of the same molecule?
**A.** The value was 4 (70% or more-90% inhibition).

**Q.** What about the “Herbicidal activity, Veronica hederaefolia” value (Veronica hederaefolia) of the same molecule?
**A.** Its value is 4 (70% or more-90% inhibition).

**Q.** And the “Herbicidal activity, Solanum nigrum” value (Solanum nigrum)?
**A.** The value was 4 (70% or more-90% inhibition).

**Q.** What about the “Herbicidal activity, Galium aparine” value (Galium aparine) of the same molecule?
**A.** Its value is 4 (70% or more-90% inhibition).

**Q.** What about the “Herbicidal activity, Amaranthus retroflexus” value (Amaranthus retroflexus) of the same molecule?
**A.** The value was 4 (70% or more-90% inhibition).

**Q.** Which “Herbicidal activity, Sinapis arvensis” value (Sinapis arvensis) does the source give for COc1cc(Cl)nc(C(=O)NS(=O)(=O)c2ccccc2OC(F)(F)F)c1 [Compound I-795, N-[(2-Trifluoromethoxyphenyl)sulfonyl]-6-chloro-4-methoxy-2-pyridinecarboxamide] here?
**A.** Its value is 5 (90% or more inhibition).

**Q.** What about the “Herbicidal activity, Stellaria media” value (Stellaria media) of the same molecule?
**A.** Its value is 5 (90% or more inhibition).

**Q.** And the “Herbicidal activity, Abutilon theophrasti” value (Abutilon theophrasti)?
**A.** Its value is 4 (70% or more-90% inhibition).

**Q.** What about the “Herbicidal activity, Bidens pilosa” value (Bidens pilosa) of the same molecule?
**A.** Its value is 5 (90% or more inhibition).

**Q.** What about the “Herbicidal activity, Convolvulus arvensis” value (Convolvulus arvensis) of the same molecule?
**A.** The value was 3 (50% or more-70% inhibition).

**Q.** What about the “Herbicidal activity, Setaria viridis” value (Setaria viridis) of the same molecule?
**A.** Its value is 2 (30% or more-50% inhibition).

**Q.** And the “Herbicidal activity, Matricaria chamomilla” value (Matricaria chamomilla)?
**A.** Its value is 5 (90% or more inhibition).

**Q.** What about the “Herbicidal activity, Veronica hederaefolia” value (Veronica hederaefolia) of the same molecule?
**A.** The value was 5 (90% or more inhibition).

**Q.** What about the “Herbicidal activity, Solanum nigrum” value (Solanum nigrum) of the same molecule?
**A.** The value was 5 (90% or more inhibition).

**Q.** What about the “Herbicidal activity, Galium aparine” value (Galium aparine) of the same molecule?
**A.** The value was 5 (90% or more inhibition).

**Q.** And the “Herbicidal activity, Amaranthus retroflexus” value (Amaranthus retroflexus)?
**A.** Its value is 4 (70% or more-90% inhibition).

**Q.** How did the “Herbicidal activity, Sinapis arvensis” value (Sinapis arvensis) turn out when CN(C)S(=O)(=O)c1ccccc1S(=O)(=O)NC(=O)c1cccc(Cl)n1 [Compound I-861, N-[[2-(N,N-Dimethylaminosulfonyl)phenyl]-sulfonyl)-6-chloro-2-pirydinecarboxamide] was run?
**A.** The value was 5 (90% or more inhibition).

**Q.** What about the “Herbicidal activity, Stellaria media” value (Stellaria media) of the same molecule?
**A.** The value was 5 (90% or more inhibition).

**Q.** What about the “Herbicidal activity, Abutilon theophrasti” value (Abutilon theophrasti) of the same molecule?
**A.** The value was 5 (90% or more inhibition).

**Q.** What about the “Herbicidal activity, Bidens pilosa” value (Bidens pilosa) of the same molecule?
**A.** Its value is 5 (90% or more inhibition).

**Q.** What about the “Herbicidal activity, Convolvulus arvensis” value (Convolvulus arvensis) of the same molecule?
**A.** The value was 5 (90% or more inhibition).

**Q.** What about the “Herbicidal activity, Setaria viridis” value (Setaria viridis) of the same molecule?
**A.** Its value is 5 (90% or more inhibition).

**Q.** And the “Herbicidal activity, Matricaria chamomilla” value (Matricaria chamomilla)?
**A.** The value was 5 (90% or more inhibition).

**Q.** What about the “Herbicidal activity, Veronica hederaefolia” value (Veronica hederaefolia) of the same molecule?
**A.** Its value is 4 (70% or more-90% inhibition).

**Q.** And the “Herbicidal activity, Solanum nigrum” value (Solanum nigrum)?
**A.** The value was 5 (90% or more inhibition).

**Q.** And the “Herbicidal activity, Galium aparine” value (Galium aparine)?
**A.** The value was 5 (90% or more inhibition).

**Q.** What about the “Herbicidal activity, Amaranthus retroflexus” value (Amaranthus retroflexus) of the same molecule?
**A.** Its value is 5 (90% or more inhibition).

**Q.** Which results are given for COc1ccc(C(=O)NS(=O)(=O)c2ccccc2S(=O)(=O)N(C)C)nc1[N+](=O)[O-] [Compound I-858, N-[[2-(N,N-Dimethylaminosulfonyl)phenyl]-sulfonyl]-5-methoxy-6-nitro-2-pyridinecarboxamide]?
**A.** Herbicidal activity, Sinapis arvensis (Sinapis arvensis): 5 (90% or more inhibition); Herbicidal activity, Stellaria media (Stellaria media): 5 (90% or more inhibition); Herbicidal activity, Abutilon theophrasti (Abutilon theophrasti): 5 (90% or more inhibition); Herbicidal activity, Bidens pilosa (Bidens pilosa): 5 (90% or more inhibition); Herbicidal activity, Convolvulus arvensis (Convolvulus arvensis): 5 (90% or more inhibition); Herbicidal activity, Setaria viridis (Setaria viridis): 5 (90% or more inhibition); Herbicidal activity, Matricaria chamomilla (Matricaria chamomilla): 4 (70% or more-90% inhibition); Herbicidal activity, Veronica hederaefolia (Veronica hederaefolia): 4 (70% or more-90% inhibition); Herbicidal activity, Solanum nigrum (Solanum nigrum): 5 (90% or more inhibition); Herbicidal activity, Galium aparine (Galium aparine): 5 (90% or more inhibition); Herbicidal activity, Amaranthus retroflexus (Amaranthus retroflexus): 5 (90% or more inhibition)

**Q.** For COC(=O)c1ccccc1S(=O)(=O)NC(=O)c1ccc(OC)cn1 [Compound I-234, 2-[[[(5-Methoxypyridin-2-yl)carbonyl]amino]-sulfonyl]benzoic Acid Methyl Ester], which “Herbicidal activity, Sinapis arvensis” value (Sinapis arvensis) is on record?
**A.** Its value is 5 (90% or more inhibition).

**Q.** What about the “Herbicidal activity, Stellaria media” value (Stellaria media) of the same molecule?
**A.** Its value is 5 (90% or more inhibition).

**Q.** What about the “Herbicidal activity, Abutilon theophrasti” value (Abutilon theophrasti) of the same molecule?
**A.** The value was 5 (90% or more inhibition).

**Q.** What about the “Herbicidal activity, Bidens pilosa” value (Bidens pilosa) of the same molecule?
**A.** The value was 5 (90% or more inhibition).

**Q.** And the “Herbicidal activity, Convolvulus arvensis” value (Convolvulus arvensis)?
**A.** The value was 4 (70% or more-90% inhibition).

**Q.** And the “Herbicidal activity, Setaria viridis” value (Setaria viridis)?
**A.** Its value is 4 (70% or more-90% inhibition).

**Q.** What about the “Herbicidal activity, Matricaria chamomilla” value (Matricaria chamomilla) of the same molecule?
**A.** The value was 5 (90% or more inhibition).

**Q.** And the “Herbicidal activity, Veronica hederaefolia” value (Veronica hederaefolia)?
**A.** The value was 4 (70% or more-90% inhibition).

**Q.** And the “Herbicidal activity, Solanum nigrum” value (Solanum nigrum)?
**A.** Its value is 5 (90% or more inhibition).

**Q.** And the “Herbicidal activity, Galium aparine” value (Galium aparine)?
**A.** Its value is 4 (70% or more-90% inhibition).

**Q.** What about the “Herbicidal activity, Amaranthus retroflexus” value (Amaranthus retroflexus) of the same molecule?
**A.** The value was 5 (90% or more inhibition).
